Where a name gives a salt, the structure may show the parent alone.
Legend:
human CYP1A2 = target: T1, human CYP1A2 (Homo sapiens, UniProt P05177)
T1 sequence (P05177 1-516): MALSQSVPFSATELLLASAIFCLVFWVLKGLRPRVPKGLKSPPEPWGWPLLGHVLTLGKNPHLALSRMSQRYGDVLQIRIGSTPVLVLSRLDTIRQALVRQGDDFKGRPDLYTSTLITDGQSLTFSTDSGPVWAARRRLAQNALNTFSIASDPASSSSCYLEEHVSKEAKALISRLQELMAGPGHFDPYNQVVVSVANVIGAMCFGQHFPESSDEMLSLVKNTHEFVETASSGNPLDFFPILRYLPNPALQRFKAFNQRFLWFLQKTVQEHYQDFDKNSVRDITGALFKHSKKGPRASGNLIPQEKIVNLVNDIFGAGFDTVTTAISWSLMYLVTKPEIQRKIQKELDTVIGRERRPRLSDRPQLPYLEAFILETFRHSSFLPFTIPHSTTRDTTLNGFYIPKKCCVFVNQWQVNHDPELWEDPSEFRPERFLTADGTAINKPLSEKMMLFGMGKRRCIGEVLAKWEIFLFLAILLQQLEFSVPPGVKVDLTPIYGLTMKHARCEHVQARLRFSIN

human CYP2C19 = human CYP2C19 (Homo sapiens, UniProt P33261)
human CYP2C9 = human CYP2C9 (Homo sapiens, UniProt P11712)
CYP3A4 = CYP3A4 (Homo sapiens, UniProt P08684)
human CYP2D6 = human CYP2D6 (Homo sapiens, UniProt P10635)
Sequence of human CYP2D6 (P10635 whole entry): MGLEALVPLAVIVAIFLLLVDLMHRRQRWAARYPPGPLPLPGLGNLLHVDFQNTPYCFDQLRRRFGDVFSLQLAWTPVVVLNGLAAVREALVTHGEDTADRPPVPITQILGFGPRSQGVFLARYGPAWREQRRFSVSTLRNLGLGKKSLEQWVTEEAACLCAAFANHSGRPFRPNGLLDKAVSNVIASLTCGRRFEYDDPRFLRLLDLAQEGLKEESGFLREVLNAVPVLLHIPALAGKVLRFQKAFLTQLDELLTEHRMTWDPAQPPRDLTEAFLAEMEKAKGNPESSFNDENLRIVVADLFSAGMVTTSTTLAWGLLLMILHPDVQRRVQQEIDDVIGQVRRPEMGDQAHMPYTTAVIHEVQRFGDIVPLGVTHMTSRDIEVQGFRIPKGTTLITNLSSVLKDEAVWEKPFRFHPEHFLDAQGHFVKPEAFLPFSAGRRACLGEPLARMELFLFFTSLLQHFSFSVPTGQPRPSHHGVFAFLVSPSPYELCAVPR

Sequence of CYP3A4 (P08684 whole entry): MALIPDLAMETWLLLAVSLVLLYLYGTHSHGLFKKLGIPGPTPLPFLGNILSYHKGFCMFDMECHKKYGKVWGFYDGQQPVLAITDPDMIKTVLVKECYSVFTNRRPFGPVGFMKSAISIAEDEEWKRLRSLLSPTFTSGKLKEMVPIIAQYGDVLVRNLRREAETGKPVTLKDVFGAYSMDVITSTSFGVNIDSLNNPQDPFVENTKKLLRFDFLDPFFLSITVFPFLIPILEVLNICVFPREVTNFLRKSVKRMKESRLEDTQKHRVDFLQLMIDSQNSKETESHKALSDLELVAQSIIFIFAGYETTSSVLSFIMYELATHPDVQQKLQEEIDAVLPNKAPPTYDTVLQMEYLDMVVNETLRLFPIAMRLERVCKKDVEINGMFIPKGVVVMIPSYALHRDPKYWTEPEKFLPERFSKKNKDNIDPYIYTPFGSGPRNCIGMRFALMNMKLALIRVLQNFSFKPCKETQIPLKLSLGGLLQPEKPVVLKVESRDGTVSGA
Sequence of human CYP2C19 (P33261 whole entry): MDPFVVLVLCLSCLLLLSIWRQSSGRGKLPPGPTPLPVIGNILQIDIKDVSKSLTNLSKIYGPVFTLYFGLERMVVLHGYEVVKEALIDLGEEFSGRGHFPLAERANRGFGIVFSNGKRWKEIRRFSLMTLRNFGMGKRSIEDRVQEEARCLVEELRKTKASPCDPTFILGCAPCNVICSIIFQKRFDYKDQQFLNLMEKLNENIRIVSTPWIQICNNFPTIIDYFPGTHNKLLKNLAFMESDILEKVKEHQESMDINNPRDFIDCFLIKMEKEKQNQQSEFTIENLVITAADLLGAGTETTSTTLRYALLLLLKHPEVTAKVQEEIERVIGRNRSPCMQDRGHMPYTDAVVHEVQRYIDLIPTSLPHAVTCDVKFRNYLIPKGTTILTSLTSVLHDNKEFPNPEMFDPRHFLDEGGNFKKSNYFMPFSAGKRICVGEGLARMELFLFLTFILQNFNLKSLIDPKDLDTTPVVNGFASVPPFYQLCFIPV
Sequence of human CYP2C9 (P11712 whole entry): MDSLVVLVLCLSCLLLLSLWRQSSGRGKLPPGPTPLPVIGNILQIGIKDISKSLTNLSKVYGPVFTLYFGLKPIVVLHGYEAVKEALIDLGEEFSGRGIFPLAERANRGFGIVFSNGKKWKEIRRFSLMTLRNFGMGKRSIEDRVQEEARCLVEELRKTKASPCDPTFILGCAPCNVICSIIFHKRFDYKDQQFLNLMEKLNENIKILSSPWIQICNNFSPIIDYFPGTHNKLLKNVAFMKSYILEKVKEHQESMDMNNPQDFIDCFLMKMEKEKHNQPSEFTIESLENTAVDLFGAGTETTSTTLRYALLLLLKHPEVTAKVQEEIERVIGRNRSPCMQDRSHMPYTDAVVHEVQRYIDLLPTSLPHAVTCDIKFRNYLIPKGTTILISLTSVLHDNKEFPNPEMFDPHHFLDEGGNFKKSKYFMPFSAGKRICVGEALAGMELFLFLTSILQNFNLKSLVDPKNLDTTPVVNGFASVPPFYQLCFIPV

Row | SMILES | CYP1A2 AC50 (half-maximal activity concentration) (human CYP1A2) | CYP2C19 AC50 (half-maximal activity concentration) (human CYP2C19) | CYP2C9 AC50 (half-maximal activity concentration) (human CYP2C9) | AC50 (CYP3A4) | CYP2D6 AC50 (half-maximal activity concentration) (human CYP2D6) | AC50 (human CYP1A2) | AC50 (human CYP2C19) | AC50 (human CYP2C9) | also measured
1 | CCc1cnc(C(=O)O)c(C(=O)O)c1 [5-Ethyl-2,3-pyridinedicarboxylic acid] | Inactive | Inactive | Inactive | 20.6 µM | Inconclusive inhibitor |  |  |  | 
2 | Cc1ccc([N+](=O)[O-])c(N)c1 [5-Methyl-2-nitroaniline] |  |  |  | 13.9 µM | Inactive | 19.2 µM | 39.6 µM | 49.9 µM | 
3 | O=C(O)c1cc(C(=O)O)cc([N+](=O)[O-])c1 [5-Nitroisophthalic acid] | Inconclusive inhibitor | Inconclusive activator | Inactive | 5.59 µM | Inactive |  |  |  | 
4 | CC(C)c1ccc2ncccc2c1 [6-(1-Methylethyl)quinoline] |  | Inactive | Inactive | 35 µM | Inactive | 46.2 µM |  |  | 
5 | CCN(CC)c1ccc2c(C)cc(=O)oc2c1 [7-Diethylamino-4-methylcoumarin] |  |  |  | 32.4 µM |  | 1.9 µM | 36 µM | 4.6 µM | AC50 (human CYP2D6): 58.5 µM
6 | N#CCc1ccc(Cl)cc1Cl [(2,4-Dichlorophenyl)acetonitrile] |  |  | Inactive | 13.3 µM | Inactive | 23.4 µM | 50.4 µM |  | 
7 | CCCCCC[C@@H](CCC)C(=O)O [(2R)-2-Propyloctanoic acid] | Inactive | Inconclusive activator |  | 31 µM | Inactive |  |  | 34.7 µM | 
8 | CCOC(=O)CC(CC(=O)OCC)(OC(C)=O)C(=O)OCC [Acetyltriethyl citrate] | Inconclusive inhibitor |  |  | 43.5 µM | Inactive |  | 18.1 µM | 30.6 µM | 
9 | CCCCCCCCCCCCCCCCC(C(=O)O)C(O)(CC(=O)O)C(=O)O (stereo not drawn) [Agaric acid] | Inactive | Inconclusive activator | Inactive | 32.4 µM | Inconclusive inhibitor |  |  |  | 
10 | CC1(C)[C@@H](O[C@H]2O[C@H](C(=O)O)[C@@H](O)[C@H](O)[C@H]2O[C@@H]2O[C@H](C(=O)O)[C@@H](O)[C@H](O)[C@H]2O)CC[C@]2(C)[C@H]3C(=O)C=C4[C@@H]5C[C@@](C)(C(=O)O)CC[C@]5(C)CC[C@@]4(C)[C@]3(C)CC[C@@H]12.N.O.O.O [Ammonium glycyrrhizinate trihydrate] | Inconclusive inhibitor | Inconclusive inhibitor | Inactive | 23.5 µM | Inactive |  |  |  | 
11 | C[As+](C)(C)CC(=O)[O-] [Arsenobetaine] | Inactive | Inactive | Inactive | 47.7 µM | Inactive |  |  |  | 
12 | CCCCC(CC)C(=O)[O-].CCCCC(CC)C(=O)[O-].[Ba+2] (stereo not drawn) [Barium bis(2-ethylhexanoate)] | Inactive | Inactive | Inactive | 38.5 µM | Inactive |  |  |  | 
13 | CC(=O)OC(C(=O)c1ccccc1)c1ccccc1 (stereo not drawn) [Benzoin acetate] |  |  |  | 34.5 µM |  | 46.5 µM | 10.1 µM | 33.2 µM | AC50 (human CYP2D6): 59.5 µM
14 | O=C(Cc1ccccc1)OCc1ccccc1 [Benzyl phenylacetate] |  |  |  | 11.5 µM |  | 12.7 µM | 13.5 µM | 35.8 µM | AC50 (human CYP2D6): 66.3 µM
15 | C/C=C(\C)C(=O)OCc1ccccc1 [Benzyl tiglate] |  | Inconclusive inhibitor | Inactive | 39 µM | Inactive | 37 µM |  |  | 
16 | C=C(C)C(=O)OCC(O)COc1ccc(C(C)(C)c2ccc(OCC(O)COC(=O)C(=C)C)cc2)cc1 (stereo not drawn) [Bisphenol A glycidyl methacrylate] |  |  |  | 3.3 µM |  | 63.5 µM | 7.59 µM | 3.46 µM | AC50 (human CYP2D6): 37 µM
17 | CC(c1ccc(O)cc1)c1ccc(O)cc1 [Bisphenol E] | Inactive |  |  |  | Inactive |  | 33.5 µM | 38.6 µM | CYP3A4 AC50 (half-maximal activity concentration) (CYP3A4): Inconclusive inhibitor
18 | CCC(=O)O[C@@H]1C=C2CC[C@@H]3[C@H](CC[C@]4(C)[C@@H](OC(=O)CC)CC[C@@H]34)C2CC1 (stereo partly drawn) [Bolandiol dipropionate] | Inconclusive inhibitor | Inactive |  | 10.6 µM | Inactive |  |  | 15.5 µM | 
19 | CCOP(=S)(OCC)Oc1cc(Cl)c(Br)cc1Cl [Bromophos-ethyl] |  |  |  |  |  |  |  |  | CYP1A2 Efficacy (in parenthesis) (human CYP1A2; human): 3.3 ± 0.22 (-98 ± 3) %; CYP2C19 Efficacy (in parenthesis) (human CYP2C19; human): 0.71 ± 0.08 (-121 ± 12) %; CYP2C9 Efficacy (in parenthesis) (human CYP2C9; human): 2.36 ± 0.42 (-102 ± 2) %; CYP3A4 Efficacy (in parenthesis) (CYP3A4): 1.97 ± 0.48 (-79 ± 2) %; CYP2D6 IC50 (half-maximal inhibitory concentration) (human CYP2D6): Inactive
20 | O=[N+]([O-])c1ccc(Nc2ccc(Nc3ccccc3)c(S(=O)(=O)[O-])c2)c([N+](=O)[O-])c1.[Na+] [C.I. Acid Orange 3] | Inactive | Inconclusive inhibitor |  | 62.6 µM | Inactive |  |  | 34.3 µM | 
21 | N.N.O=C([O-])C1(C(=O)[O-])CCC1.[Pt+2] [Carboplatin] |  |  |  | 31.3 µM |  | 15.6 µM | 17.7 µM | 9.46 µM | AC50 (human CYP2D6): 28.7 µM
22 | CC(=O)[O-].CC(=O)[O-].CC(=O)[O-].[Cr+3] [Chromium(III) acetate] | Inactive | Inactive |  | 69.6 µM | Inactive |  |  | 96.3 µM | 
23 | CCOC(=O)COc1ccc2c(C)c(CCN(CC)CC)c(=O)oc2c1Cl.Cl [Cloricromen hydrochloride] | Inconclusive inhibitor | Inactive | Inactive | 16.8 µM |  |  |  |  | AC50 (human CYP2D6): 18.2 µM
24 | O=C(O)C1(C(=O)Nc2ccc(Cl)cc2Cl)CC1 [Cyclanilide] |  | Inconclusive inhibitor |  | 55.5 µM |  | 60.6 µM |  | 18.7 µM | AC50 (human CYP2D6): 66.8 µM

Source: publication PMC12155096 (International Journal of Molecular Sciences, 2025)
